Experimental data: PMC10905675, “INX-315, a Selective CDK2 Inhibitor, Induces Cell Cycle Arrest and Senescence in Solid Tumors” (Cancer Discovery, 2023)
Read-outs that look alike come from different tables or passages of the source.

Legend:
MCF7 Parent = assay: Cell number dose-response; assay type: cell-based; settings: Homo sapiens
Description: (§1) MCF7 abemaciclib-resistant cells were generated by continuous treatment with abemaciclib at a concentration of 250 nmol/L for 72 days, followed by 500 nmol/L for 48 days. MCF7 fulvestrant-resistant cells were generated by continuous treatment of 100 nmol/L Fulvestrant for 125 days. MCF7 abemaciclib/fulvestrant-resistant cells were generated by treating abemaciclib-resistant cells continuously with 100 nmol/L fulvestrant for 137 days. T47D abemaciclib-resistant lines were generated by continuous treatment with abemaciclib at a concentration of 500 nmol/L for 73 days. T47D fulvestrant–resistant cells were generated by continuous treatment with 100 nmol/L fulvestrant for 68 days. T47D abemaciclib/fulvestrant-resistant cells were generated by treating abemaciclib-resistant cells with continuous treatment of 100 nmol/L Fulvestrant for 60 days. Resistant cell lines were cultured in medium containing drug(s) that the line is resistant to and further authenticated using short tandem repeat profiling.
(§2) An exception to this is MCF7PDRCl5-1 cells which were first cultured for 5 days without palbociclib then plated as described. MCF7PDRCl5-1 cells were treated with either a dose curve of the indicated CDK4/6i or a dose curve of INX-315 + 1 µmol/L of the indicated CDK4/6i. Cell viability was determined using the CellTiter-Glo assay (Promega, G9241) following manufacturer's instructions. Plates were processed on either BioTek Synergy2 multi-mode (Agilent) or ClarioSTAR (BMG Labtech) plate readers. T47D and MCF7 cells were seeded into […] plates using BioTek 406 (Aglient) and treated with a ten-point dose concentration from 10 µmol/L to 0.3 nmol/L of INX-315 for 2× doubling times. Plates were fixed with 4% PFA and stained with Rhodamine-Phalloidin (Bio-Trend, 00027) and DAPI (5 mg/mL, Invitrogen, catalog no. D1306). Plates were imaged using CellInsight CX7 LZR and DAPI-positive cells were counted using Thermo Fisher Scientific HCS Studio Cell Analysis Software.

T47D Fulv-resistant = assay: Cell number dose-response; assay type: cell-based; settings: Homo sapiens, read-out: IC50 (nmol/L): T47D
Description: as §1, §2

NLK = molecular target: T1, NLK (Homo sapiens, UniProt Q9UBE8); assay: SelectScreen LanthaScreen Binding; settings: INX-0315 at 100nM
T1 construct: purchased Thermo Fisher Scientific SelectScreen (plus Nanosyn / Reaction Biology for CDK/cyclin lines)
In short: (§3)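 Kinase profiling used the provider's preestablished standard conditions. A primary screen tested INX-315 at a single 100 nmol/L in 1% DMSO. Follow-up testing used 10-point dose–response curves running from 1 µmol/L down to 0.0495 nmol/L.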

STK33 = molecular target: T2, STK33 (Homo sapiens, UniProt Q9BYT3); assay: SelectScreen LanthaScreen Binding; settings: INX-0315 at 100nM
T2 construct: purchased Thermo Fisher Scientific SelectScreen (plus Nanosyn / Reaction Biology for CDK/cyclin lines)
In short: as §3

MLK4 = molecular target: T3, MLK4 (Homo sapiens, UniProt Q5TCX8); assay: SelectScreen LanthaScreen Binding; settings: INX-0315 at 100nM
T3 construct: purchased Thermo Fisher Scientific SelectScreen (plus Nanosyn / Reaction Biology for CDK/cyclin lines)
In short: as §3

ULK1 = molecular target: T4, ULK1 (Homo sapiens, UniProt O75385); assay: SelectScreen LanthaScreen Binding; settings: INX-0315 at 100nM
T4 construct: purchased Thermo Fisher Scientific SelectScreen (plus Nanosyn / Reaction Biology for CDK/cyclin lines)
In short: as §3

ULK2 = molecular target: T5, ULK2 (Homo sapiens, UniProt Q8IYT8); assay: SelectScreen LanthaScreen Binding; settings: INX-0315 at 100nM
T5 construct: purchased Thermo Fisher Scientific SelectScreen (plus Nanosyn / Reaction Biology for CDK/cyclin lines)
T5 sequence (Q8IYT8 whole entry): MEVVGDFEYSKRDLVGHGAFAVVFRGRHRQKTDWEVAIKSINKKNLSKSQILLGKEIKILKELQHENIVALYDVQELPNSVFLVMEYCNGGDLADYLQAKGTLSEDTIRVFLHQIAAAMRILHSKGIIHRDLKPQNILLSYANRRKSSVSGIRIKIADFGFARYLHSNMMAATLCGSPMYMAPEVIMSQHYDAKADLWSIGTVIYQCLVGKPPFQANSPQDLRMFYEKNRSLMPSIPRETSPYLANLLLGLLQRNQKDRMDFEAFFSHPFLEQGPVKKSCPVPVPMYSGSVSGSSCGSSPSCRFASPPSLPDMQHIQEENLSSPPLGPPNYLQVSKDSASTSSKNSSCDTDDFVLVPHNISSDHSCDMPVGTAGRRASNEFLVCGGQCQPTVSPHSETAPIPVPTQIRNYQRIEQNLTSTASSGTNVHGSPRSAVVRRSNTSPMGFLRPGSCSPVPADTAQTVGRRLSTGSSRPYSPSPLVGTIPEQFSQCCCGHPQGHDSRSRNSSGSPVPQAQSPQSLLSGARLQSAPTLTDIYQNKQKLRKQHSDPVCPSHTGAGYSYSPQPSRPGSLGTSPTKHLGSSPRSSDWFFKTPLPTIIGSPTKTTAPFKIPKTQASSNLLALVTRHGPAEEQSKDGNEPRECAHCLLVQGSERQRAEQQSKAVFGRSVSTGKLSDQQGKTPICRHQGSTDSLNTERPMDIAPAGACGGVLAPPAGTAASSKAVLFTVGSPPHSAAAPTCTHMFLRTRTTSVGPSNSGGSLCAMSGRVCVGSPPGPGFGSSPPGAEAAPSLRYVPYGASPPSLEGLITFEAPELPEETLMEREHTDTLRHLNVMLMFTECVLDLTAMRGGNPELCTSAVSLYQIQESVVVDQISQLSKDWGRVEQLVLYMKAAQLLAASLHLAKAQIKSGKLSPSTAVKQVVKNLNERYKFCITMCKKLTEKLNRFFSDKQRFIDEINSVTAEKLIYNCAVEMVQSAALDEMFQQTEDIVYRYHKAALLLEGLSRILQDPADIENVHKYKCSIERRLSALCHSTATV
In short: as §3

TGFBR1 (ALK5) = molecular target: T6, TGFBR1 (ALK5) (Homo sapiens, UniProt P36897); assay: SelectScreen LanthaScreen Binding; settings: INX-0315 at 100nM
T6 construct: purchased Thermo Fisher Scientific SelectScreen (plus Nanosyn / Reaction Biology for CDK/cyclin lines)
In short: as §3

CDK9 (Inactive) = molecular target: T7, CDK9 (Inactive) (Homo sapiens, UniProt P50750); assay: SelectScreen LanthaScreen Binding; settings: INX-0315 at 100nM
T7 construct: purchased Thermo Fisher Scientific SelectScreen (plus Nanosyn / Reaction Biology for CDK/cyclin lines)
In short: as §3

MAP2K2 (MEK2) = molecular target: T8, MAP2K2 (MEK2) (Homo sapiens, UniProt P36507); assay: SelectScreen LanthaScreen Binding; settings: INX-0315 at 100nM
T8 construct: purchased Thermo Fisher Scientific SelectScreen (plus Nanosyn / Reaction Biology for CDK/cyclin lines)
In short: as §3

DMPK = molecular target: T9, DMPK (Homo sapiens, UniProt Q09013); assay: SelectScreen LanthaScreen Binding; settings: INX-0315 at 100nM
T9 construct: purchased Thermo Fisher Scientific SelectScreen (plus Nanosyn / Reaction Biology for CDK/cyclin lines)
In short: as §3

CASK = molecular target: T10, CASK (Homo sapiens, UniProt O14936); assay: SelectScreen LanthaScreen Binding; settings: INX-0315 at 100nM
T10 construct: purchased Thermo Fisher Scientific SelectScreen (plus Nanosyn / Reaction Biology for CDK/cyclin lines)
In short: as §3

DAPK2 = molecular target: T11, DAPK2 (Homo sapiens, UniProt Q9UIK4); assay: SelectScreen LanthaScreen Binding; settings: INX-0315 at 100nM
T11 construct: purchased Thermo Fisher Scientific SelectScreen (plus Nanosyn / Reaction Biology for CDK/cyclin lines)
T11 sequence (Q9UIK4 whole entry): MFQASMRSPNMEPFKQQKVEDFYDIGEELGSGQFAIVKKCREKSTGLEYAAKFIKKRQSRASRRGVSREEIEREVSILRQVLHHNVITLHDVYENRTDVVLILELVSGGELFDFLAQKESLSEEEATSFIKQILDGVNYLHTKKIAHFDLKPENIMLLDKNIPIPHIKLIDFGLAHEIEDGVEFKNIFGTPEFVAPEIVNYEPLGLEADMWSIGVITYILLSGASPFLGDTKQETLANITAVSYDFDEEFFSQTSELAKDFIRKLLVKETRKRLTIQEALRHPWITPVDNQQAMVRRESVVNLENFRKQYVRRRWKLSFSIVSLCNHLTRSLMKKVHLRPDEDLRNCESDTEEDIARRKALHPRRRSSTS
In short: as §3

ACVR1 (ALK2) R206H = molecular target: T12, ACVR1 (ALK2) R206H (Homo sapiens, UniProt Q04771, R206H); assay: SelectScreen LanthaScreen Binding; settings: INX-0315 at 100nM
T12 construct: purchased Thermo Fisher Scientific SelectScreen (plus Nanosyn / Reaction Biology for CDK/cyclin lines)
In short: as §3

MAPK10 (JNK3) = molecular target: T13, MAPK10 (JNK3) (Homo sapiens, UniProt P53779); assay: SelectScreen LanthaScreen Binding; settings: INX-0315 at 100nM
T13 construct: purchased Thermo Fisher Scientific SelectScreen (plus Nanosyn / Reaction Biology for CDK/cyclin lines)
T13 sequence (P53779 whole entry): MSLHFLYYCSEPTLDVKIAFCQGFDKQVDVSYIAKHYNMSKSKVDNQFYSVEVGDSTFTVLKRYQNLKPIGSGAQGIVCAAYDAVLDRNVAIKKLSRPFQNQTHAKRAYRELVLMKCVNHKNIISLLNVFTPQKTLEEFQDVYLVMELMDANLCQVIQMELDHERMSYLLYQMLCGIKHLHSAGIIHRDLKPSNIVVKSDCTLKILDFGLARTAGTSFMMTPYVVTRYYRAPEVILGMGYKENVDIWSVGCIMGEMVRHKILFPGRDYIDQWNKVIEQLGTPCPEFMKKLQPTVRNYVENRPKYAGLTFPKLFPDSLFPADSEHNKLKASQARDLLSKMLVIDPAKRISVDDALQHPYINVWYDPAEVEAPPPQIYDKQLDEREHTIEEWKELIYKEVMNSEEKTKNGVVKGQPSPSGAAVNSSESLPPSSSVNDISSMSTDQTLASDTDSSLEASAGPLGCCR
In short: as §3

ERN2 = molecular target: T14, ERN2 (Homo sapiens, UniProt Q76MJ5); assay: SelectScreen LanthaScreen Binding; settings: INX-0315 at 100nM
T14 construct: purchased Thermo Fisher Scientific SelectScreen (plus Nanosyn / Reaction Biology for CDK/cyclin lines)
T14 sequence (Q76MJ5 35-926): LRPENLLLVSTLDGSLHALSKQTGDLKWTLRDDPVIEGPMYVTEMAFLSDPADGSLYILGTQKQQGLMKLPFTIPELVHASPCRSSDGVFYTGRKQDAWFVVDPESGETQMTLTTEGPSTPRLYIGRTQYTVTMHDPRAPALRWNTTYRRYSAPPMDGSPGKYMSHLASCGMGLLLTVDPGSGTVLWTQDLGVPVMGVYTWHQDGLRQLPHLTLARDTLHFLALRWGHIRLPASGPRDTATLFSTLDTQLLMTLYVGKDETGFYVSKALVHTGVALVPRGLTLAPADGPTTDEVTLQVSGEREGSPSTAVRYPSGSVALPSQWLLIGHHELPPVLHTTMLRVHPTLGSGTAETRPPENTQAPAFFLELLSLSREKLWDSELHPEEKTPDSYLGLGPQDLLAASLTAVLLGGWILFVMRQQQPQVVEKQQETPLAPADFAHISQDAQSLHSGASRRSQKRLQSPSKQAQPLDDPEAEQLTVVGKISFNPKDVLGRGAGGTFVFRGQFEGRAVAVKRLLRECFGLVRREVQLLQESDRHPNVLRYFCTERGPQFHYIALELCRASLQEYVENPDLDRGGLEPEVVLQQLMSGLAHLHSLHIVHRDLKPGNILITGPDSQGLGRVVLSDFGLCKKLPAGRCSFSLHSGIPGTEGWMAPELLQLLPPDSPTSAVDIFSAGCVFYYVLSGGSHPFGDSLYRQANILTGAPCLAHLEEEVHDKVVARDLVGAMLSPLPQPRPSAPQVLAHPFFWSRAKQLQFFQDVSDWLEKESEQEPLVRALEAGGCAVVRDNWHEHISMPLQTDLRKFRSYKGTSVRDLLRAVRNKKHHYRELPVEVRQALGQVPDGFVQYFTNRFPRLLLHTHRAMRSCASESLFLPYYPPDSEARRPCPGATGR
In short: as §3

STK38L (NDR2) = molecular target: T15, STK38L (NDR2) (Homo sapiens, UniProt Q9Y2H1); assay: SelectScreen LanthaScreen Binding; settings: INX-0315 at 100nM
T15 construct: purchased Thermo Fisher Scientific SelectScreen (plus Nanosyn / Reaction Biology for CDK/cyclin lines)
In short: as §3

[1] = molecular target: T16, MAP2K6 (MKK6) S207E T211E (Homo sapiens, UniProt P52564, S207E/T211E); assay: SelectScreen LanthaScreen Binding; settings: INX-0315 at 100nM
T16 construct: purchased Thermo Fisher Scientific SelectScreen (plus Nanosyn / Reaction Biology for CDK/cyclin lines)
In short: as §3

EGFR (ErbB1) d746-750 = molecular target: T17, EGFR (ErbB1) d746-750 (Homo sapiens, UniProt P00533, DEL746-750); assay: SelectScreen LanthaScreen Binding; settings: INX-0315 at 100nM
T17 construct: purchased Thermo Fisher Scientific SelectScreen (plus Nanosyn / Reaction Biology for CDK/cyclin lines)
In short: as §3

NEK8 = molecular target: T18, NEK8 (Homo sapiens, UniProt Q86SG6); assay: SelectScreen LanthaScreen Binding; settings: INX-0315 at 100nM
T18 construct: purchased Thermo Fisher Scientific SelectScreen (plus Nanosyn / Reaction Biology for CDK/cyclin lines)
In short: as §3

[2] = molecular target: T19, EGFR (ErbB1) d747-749 A750P (Homo sapiens, UniProt P00533, A750P/DEL747-749); assay: SelectScreen LanthaScreen Binding; settings: INX-0315 at 100nM
T19 construct: purchased Thermo Fisher Scientific SelectScreen (plus Nanosyn / Reaction Biology for CDK/cyclin lines)
In short: as §3

EPHA6 = molecular target: T20, EPHA6 (Homo sapiens, UniProt Q9UF33); assay: SelectScreen LanthaScreen Binding; settings: INX-0315 at 100nM
T20 construct: purchased Thermo Fisher Scientific SelectScreen (plus Nanosyn / Reaction Biology for CDK/cyclin lines)
T20 sequence (Q9UF33 23-1036): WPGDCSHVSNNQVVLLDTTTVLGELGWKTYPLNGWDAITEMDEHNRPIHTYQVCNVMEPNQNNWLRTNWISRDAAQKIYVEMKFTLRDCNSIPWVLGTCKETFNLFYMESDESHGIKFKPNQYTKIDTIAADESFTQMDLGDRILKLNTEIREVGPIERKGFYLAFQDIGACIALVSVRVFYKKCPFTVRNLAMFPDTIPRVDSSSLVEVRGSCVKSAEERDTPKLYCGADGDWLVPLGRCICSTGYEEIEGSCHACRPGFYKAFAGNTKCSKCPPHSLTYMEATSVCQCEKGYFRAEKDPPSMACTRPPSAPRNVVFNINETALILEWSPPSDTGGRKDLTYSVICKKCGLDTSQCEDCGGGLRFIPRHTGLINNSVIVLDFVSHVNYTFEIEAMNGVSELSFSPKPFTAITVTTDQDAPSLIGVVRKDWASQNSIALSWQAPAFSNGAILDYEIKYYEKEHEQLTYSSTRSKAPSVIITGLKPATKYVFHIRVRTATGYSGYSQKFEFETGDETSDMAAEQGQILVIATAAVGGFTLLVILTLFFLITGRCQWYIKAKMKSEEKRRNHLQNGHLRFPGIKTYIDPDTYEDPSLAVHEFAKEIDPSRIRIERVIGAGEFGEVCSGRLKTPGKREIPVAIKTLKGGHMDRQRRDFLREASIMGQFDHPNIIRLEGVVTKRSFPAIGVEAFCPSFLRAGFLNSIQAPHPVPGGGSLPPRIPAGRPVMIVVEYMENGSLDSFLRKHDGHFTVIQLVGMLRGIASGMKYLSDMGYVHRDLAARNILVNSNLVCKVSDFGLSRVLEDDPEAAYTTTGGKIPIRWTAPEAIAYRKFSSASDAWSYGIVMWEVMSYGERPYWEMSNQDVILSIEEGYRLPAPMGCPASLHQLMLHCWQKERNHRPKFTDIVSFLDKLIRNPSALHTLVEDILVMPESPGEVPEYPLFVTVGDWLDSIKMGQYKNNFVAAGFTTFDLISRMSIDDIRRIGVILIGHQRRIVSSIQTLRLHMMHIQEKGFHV
In short: as §3

EPHA3 = molecular target: T21, EPHA3 (Homo sapiens, UniProt P29320); assay: SelectScreen LanthaScreen Binding; settings: INX-0315 at 100nM
T21 construct: purchased Thermo Fisher Scientific SelectScreen (plus Nanosyn / Reaction Biology for CDK/cyclin lines)
In short: as §3

CLK4 = molecular target: T22, CLK4 (Homo sapiens, UniProt Q9HAZ1); assay: SelectScreen LanthaScreen Binding; settings: INX-0315 at 100nM
T22 construct: purchased Thermo Fisher Scientific SelectScreen (plus Nanosyn / Reaction Biology for CDK/cyclin lines)
In short: as §3

SIK3 = molecular target: T23, SIK3 (Homo sapiens, UniProt Q9Y2K2); assay: SelectScreen LanthaScreen Binding; settings: INX-0315 at 100nM
T23 construct: purchased Thermo Fisher Scientific SelectScreen (plus Nanosyn / Reaction Biology for CDK/cyclin lines)
T23 sequence (Q9Y2K2 whole entry): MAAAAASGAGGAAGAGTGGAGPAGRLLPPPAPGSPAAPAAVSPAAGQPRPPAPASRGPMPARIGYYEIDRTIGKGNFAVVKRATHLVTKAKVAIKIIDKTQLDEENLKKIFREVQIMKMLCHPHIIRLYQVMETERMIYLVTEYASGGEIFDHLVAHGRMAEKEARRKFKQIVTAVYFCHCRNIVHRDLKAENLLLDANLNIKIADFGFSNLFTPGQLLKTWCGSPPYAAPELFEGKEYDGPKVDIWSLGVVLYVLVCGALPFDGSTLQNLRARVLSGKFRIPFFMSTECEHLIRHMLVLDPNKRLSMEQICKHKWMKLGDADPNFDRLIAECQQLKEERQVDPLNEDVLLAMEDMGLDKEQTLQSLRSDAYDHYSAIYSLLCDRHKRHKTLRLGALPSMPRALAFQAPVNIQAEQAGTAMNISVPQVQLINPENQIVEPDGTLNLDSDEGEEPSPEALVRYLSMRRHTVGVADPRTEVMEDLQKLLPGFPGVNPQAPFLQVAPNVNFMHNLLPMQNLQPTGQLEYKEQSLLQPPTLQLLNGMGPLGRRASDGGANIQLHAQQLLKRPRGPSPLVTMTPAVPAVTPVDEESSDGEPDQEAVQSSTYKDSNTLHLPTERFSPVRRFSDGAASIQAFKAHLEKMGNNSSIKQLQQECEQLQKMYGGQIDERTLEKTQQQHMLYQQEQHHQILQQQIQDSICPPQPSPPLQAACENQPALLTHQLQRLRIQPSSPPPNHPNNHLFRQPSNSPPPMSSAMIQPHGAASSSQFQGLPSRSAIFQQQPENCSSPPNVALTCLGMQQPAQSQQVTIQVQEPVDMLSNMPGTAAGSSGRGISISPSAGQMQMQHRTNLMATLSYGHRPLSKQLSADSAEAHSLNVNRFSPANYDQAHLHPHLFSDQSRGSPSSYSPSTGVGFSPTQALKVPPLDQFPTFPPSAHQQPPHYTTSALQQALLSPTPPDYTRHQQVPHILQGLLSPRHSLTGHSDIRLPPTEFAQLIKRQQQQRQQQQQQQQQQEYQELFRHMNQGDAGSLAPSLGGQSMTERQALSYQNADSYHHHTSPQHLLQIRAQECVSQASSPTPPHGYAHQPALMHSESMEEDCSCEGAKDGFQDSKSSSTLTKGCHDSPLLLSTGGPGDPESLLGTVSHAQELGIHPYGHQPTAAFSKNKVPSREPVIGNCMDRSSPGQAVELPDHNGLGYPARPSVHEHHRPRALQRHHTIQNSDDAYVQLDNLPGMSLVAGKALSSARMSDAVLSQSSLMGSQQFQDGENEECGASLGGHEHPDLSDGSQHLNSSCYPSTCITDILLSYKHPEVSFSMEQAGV
In short: as §3

MAP2K4 (MEK4) = molecular target: T24, MAP2K4 (MEK4) (Homo sapiens, UniProt P45985); assay: SelectScreen LanthaScreen Binding; settings: INX-0315 at 100nM
T24 construct: purchased Thermo Fisher Scientific SelectScreen (plus Nanosyn / Reaction Biology for CDK/cyclin lines)
In short: as §3

DDR1 = molecular target: T25, DDR1 (Homo sapiens, UniProt Q08345); assay: SelectScreen LanthaScreen Binding; settings: INX-0315 at 100nM
T25 construct: purchased Thermo Fisher Scientific SelectScreen (plus Nanosyn / Reaction Biology for CDK/cyclin lines)
In short: as §3

Compound: NS(=O)(=O)c1ccc(Nc2ncc3cc4n(c3n2)C2(CCCCC2)C(=O)NN4)cc1 [INX-315]
- IC50 (MCF7 Parent; MCF7, read-out: IC50 (nmol/L): MCF7, Parent + abema: 500 nmol/L abemaciclib concurrently): 515 nmol/L
- IC50 (MCF7 Parent; MCF7, read-out: IC50 (nmol/L): MCF7, Parent cells in DMSO): 267 nmol/L
- IC50 (T47D Fulv-resistant): 106 nmol/L
- inhibition at 0.1 µM (NLK): 0%
- inhibition at 0.1 µM (STK33): 5%
- inhibition at 0.1 µM (MLK4): -5%
- inhibition at 0.1 µM (ULK1): 1%
- inhibition at 0.1 µM (ULK2): 3%
- inhibition at 0.1 µM (TGFBR1 (ALK5)): 4%
- inhibition at 0.1 µM (CDK9 (Inactive)): 44%
- inhibition at 0.1 µM (MAP2K2 (MEK2)): 0%
- inhibition at 0.1 µM (DMPK): 6%
- inhibition at 0.1 µM (CASK): -3%
- inhibition at 0.1 µM (DAPK2): 11%
- inhibition at 0.1 µM (ACVR1 (ALK2) R206H): -1%
- inhibition at 0.1 µM (MAPK10 (JNK3)): 12%
- inhibition at 0.1 µM (ERN2): 2%
- inhibition at 0.1 µM (STK38L (NDR2)): 0%
- inhibition at 0.1 µM [1]: 7%
- inhibition at 0.1 µM (EGFR (ErbB1) d746-750): 0%
- inhibition at 0.1 µM (NEK8): 0%
- inhibition at 0.1 µM [2]: 12%
- inhibition at 0.1 µM (EPHA6): 10%
- inhibition at 0.1 µM (EPHA3): -1%
- inhibition at 0.1 µM (CLK4): -2%
- inhibition at 0.1 µM (SIK3): 2%
- inhibition at 0.1 µM (MAP2K4 (MEK4)): 17%
- inhibition at 0.1 µM (DDR1): 3%
